According to patent US10595542B2, “Method for producing Swiss-type cheese” (CSK Food Enrichment B.V., priority 2014, dated 2020):

Assays:
[1] = system: Propionibacteria freudenreichii DPC 2241; assay: MIC value determination, 96 wells microtitre plate; format: cell-based, Propionibacterium freudenreichii; conditions: strain DPC 2241; SLA medium, 30° C. anaerobically 19-24 hours; average of triplicate
Procedure: (§1) The dairy Propionibacteria that are comprised in the starter culture according to the invention are preferably characterized by having a MIC value of 5 mg or higher, more preferably 10 mg or higher, even more preferably 25 mg or higher, even more preferably 50 mg or higher, most preferably even 100 mg or higher for lacticin 3147 per litre of growth medium. Herein, the term MIC has its common meaning of “minimal inhibitory concentration” and is the lowest concentration of an antimicrobial (in the present case lacticin 3147) that will inhibit the visible growth of a microorganism after overnight incubation. MIC values for lacticin 3147 or other bacteriocins are typically determined according to the following test: Propionibacterium strains are grown from an individual colony for 2-3 nights (SLA, 30° C., anaerobically) until turbid. 3% inoculum is subbed into fresh SLA medium and incubated for approx. 7 hours until OD600 0.5 is reached. Of the resulting culture, 10^5 cfu/ml is inoculated into 96 wells microtitreplates containing fresh SLA medium comprising lacticin 3147, or other bacteriocin, ranging in concentrations from 100 mg/L to 0.01 mg/L (high concentrations to the left, low concentrations to the right). Growth following incubation at 30° C. anaerobically for 19-24 hours is visually evaluated by inspecting turbidity from left to right. MIC values are determined according to the last well where no visible growth is observed (average of triplicate determinations). The above protocol under appropriate growth conditions can be used to obtain MIC values of other strains, e.g. of Lactoabacilli, Clostridia, etc., against lacticin 3147 or other bacteriocins such as nisin. […] At the same time MIC values against nisin were at least 20 times lower.
(§2) MIC values were determined according to a protocol from UCC & Piper et al., J. Antimicrob. Chemother. 2009, 61(3), 546. The protocol was adapted for 96 wells mictrotitre plate screening. Indicator strains Lb. delbrueckii ssp. lactis, C99 (commercially available ex CSK Food Enrichment CV) and Propionibacterium freudenreichii, C21 (commercially available ex CSK Food Enrichment CV) were used. Growth media were MRS for C99, sodium lactate agar (SLA) for C21.
(§3) MIC value determination of propionibacteria against lacticin was performed according to the following procedure: Propionibacterium strains were grown, from an individual colony, for 2-3 nights (SLA, 30 deg C., anaerobically) until turbid. 3% inoculum was subbed into fresh SLA medium and incubated for approx. 7 hours until OD600 0.5 was reached. Of the resulting culture, 10^5 cfu/ml was inoculated into 96 wells microtitreplates containing fresh SLA medium comprising lacticin 3147 ranging in concentrations from 100 mg/L to 0.01 mg/L (high concentrations to the left, low concentrations to the right). Visually evaluated growth following incubation at 30° C. anaerobically for 19-24 hours, by inspecting turbidity from left to right (i.e. starting at the highest lacticin concentrations). MIC values were determined according to the last well where no visible growth is observed (average of triplicate determinations). MIC values against nisin have be obtained similarly.

[2] = system: Propionibacteria freudenreichii CSK code 21; assay: MIC value determination, 96 wells microtitre plate; format: cell-based, Propionibacterium freudenreichii; conditions: strain CSK code 21; SLA medium, 30° C. anaerobically 19-24 hours; average of triplicate
Procedure: as §1, §2, §3

[3] = system: Propionibacteria freudenreichii DPC 4555; assay: MIC value determination, 96 wells microtitre plate; format: cell-based, Propionibacterium freudenreichii; conditions: strain DPC 4555; SLA medium, 30° C. anaerobically 19-24 hours; average of triplicate
Procedure: as §1, §2, §3

[4] = system: Propionibacteria freudenreichii CSK 1205; assay: MIC value determination, 96 wells microtitre plate; format: cell-based, Propionibacterium freudenreichii; conditions: strain CSK 1205; SLA medium, 30° C. anaerobically 19-24 hours; average of triplicate
Procedure: as §1, §2, §3

[5] = system: Lb. delbrueckii ssp. lactis, C99; assay: MIC value determination of Lactobacilli; format: cell-based, Lactobacillus delbrueckii; conditions: results not shown
Procedure: as §2
MIC value determination of Lactobacilli against lacticin was performed according to the following procedure: Lactobacillus strains were grown, from an individual colony, overnight (MRS, 37 deg C., anaerobically) until turbid. 3% inoculum was subbed into fresh […] medium and incubated for approx. 7 hours until OD600 0.5 was reached. Of the resulting culture, 10^5 cfu/ml was inoculated into 96 wells microtitreplates containing fresh MRS medium comprising lacticin 3147 ranging in concentrations from 100 mg/L to 0.01 mg/L (high concentrations to the left, low concentrations to the right). Visually evaluated growth following incubation at 37° C. anaerobically for 19-24 hours, by inspecting turbidity from left to right (i.e. starting at the highest lacticin concentrations). MIC values were determined according to the last well where no visible growth is observed (average of triplicate determinations).

[6] = system: different strains of C. tyrobutyricum; assay: MIC value determination against C. tyrobutyricum; format: cell-based, Clostridium tyrobutyricum
Procedure: The dairy Propionibacteria that are comprised in the starter culture according to the invention are preferably characterized by having a MIC value of 5 mg or higher, more preferably 10 mg or higher, even more preferably 25 mg or higher, even more preferably 50 mg or higher, most preferably even 100 mg or higher for lacticin 3147 per litre of growth medium. Herein, the term MIC has its common meaning of “minimal inhibitory concentration” and is the lowest concentration of an antimicrobial (in the present case lacticin 3147) that will inhibit the visible growth of a microorganism after overnight incubation. MIC values for lacticin 3147 or other bacteriocins are typically determined according to the following test: Propionibacterium strains are grown from an individual colony for 2-3 nights (SLA, 30° C., anaerobically) until turbid. 3% inoculum is subbed into fresh SLA medium and incubated for approx. 7 hours until OD600 0.5 is reached. […] Growth following incubation at 30° C. anaerobically for 19-24 hours is visually evaluated by inspecting turbidity from left to right. MIC values are determined according to the last well where no visible growth is observed (average of triplicate determinations). […]
MIC values were determined according to a protocol from UCC & Piper et al., J. Antimicrob. […]

Substance	MIC [1] [µg/mL]	MIC [2] [µg/mL]	MIC [3] [µg/mL]	MIC [4] [µg/mL]	lacticin 3147 required to inhibit relative to nisin [5]	MIC values [6] [µg/mL]
lacticin 3147	>50	>50	8.3	>50	Approximately 10 times	0.4 to 2.5
nisin [reference compound]	2.5	1.25	0.039	1.25		0.03 to 0.1
